Assay results published in US7943774B2 (priority 2008, dated 2011).
Where two headings read alike, the source gives them in different places.

Assays:
log P (pH2.3) = assay type: physicochemical; settings: for chromatographic logP: reversed-phase HPLC column (C18)
Phytophthora infestans = test: whole plant or invertebrate; assay type: in vivo; settings: in Solanum lycopersicum, 168 h, read-out: efficacy
Plasmopara viticola = test: Plasmopara test (grapevine)/protective; assay type: in vivo; settings: 144 h, active compound concentration of 100 ppm, young grapevine plants sprayed, then inoculated, evaluation 6 days after inoculation, 0% = control, 100% = no infection, read-out: efficacy
Experimental: Plasmopara Test (Grapevine)/Protective
After the spray coating has dried on, the plants are inoculated with an aqueous spore suspension of Plasmopara viticola and then remain in an incubation cabin at about 20° C. and 100% relative atmospheric humidity for 1 day. The plants are then placed in a greenhouse at about 21° C. and an atmospheric humidity of about 90% for 4 days. The plants are then moistened and placed in an incubation cabin for 1 day.
Evaluation is carried out 6 days after the inoculation.

[1] = method [b]: LC-MS, acidic range, pH 2.7, 0.1% aqueous formic acid and acetonitrile
[2] = method [b]: LC-MS, acidic range, pH 2.7, 0.1% aqueous formic acid and acetonitrile, HPLC on reversed-phase C 18
[3] = method [c]: LC-MS, neutral range, pH 7.8, 0.001 molar aqueous ammonium bicarbonate solution and acetonitrile, HPLC on reversed-phase C 18

| SMILES | chromatographic logP (log P (pH2.3); [1]) | pest or weed control at 500 ppm (Phytophthora infestans) | pest or weed control at 100 ppm (Plasmopara viticola) | log p (log P (pH2.3); [2]) | also measured |
| --- | --- | --- | --- | --- | --- |
| Cc1cc(C(F)(F)F)nn1CC(=O)N1CCC(c2nc(/C=C\c3cccc4ccccc34)cs2)CC1 [Example I-2, 2-[5-Methyl-3-(trifluoromethyl)-1H-pyrazol-1-yl]-1-(4-{4-[(Z)-2-(naphthalen-1-yl)ethenyl]-1,3-thiazol-2-yl}piperidin-1-yl)ethanone] | 4.52 | ≥ 70% | – | – | – |
| Cc1cc(C(F)(F)F)nn1CC(=O)N1CCC(c2nc(/C=C\CC(C)c3ccccc3)cs2)CC1 (centres unmarked) [Example I-3, 2-[5-Methyl-3-(trifluoromethyl)-1H-pyrazol-1-yl]-1-(4-{4-[(1Z)-4-phenylpent-1-en-1-yl]-1,3-thiazol-2-yl}piperidin-1-yl)ethanone] | 4.84 | ≥ 70% | – | – | – |
| Cc1cc(C(F)(F)F)nn1CC(=O)N1CCC(c2nc(/C=C/c3cccc4ccccc34)cs2)CC1 [Example I-27, 2-[5-Methyl-3-(trifluoromethyl)-1H-pyrazol-1-yl]-1-(4-{4-[(E)-2-(naphthalen-1-yl)ethenyl]-1,3-thiazol-2-yl}piperidin-1-yl)ethanone] | 4.63 | ≥ 70% | – | – | – |
| Cc1cc(C(F)(F)F)nn1CC(=O)N1CCC(c2nc(C#Cc3cccc4ccccc34)cs2)CC1 [Example I-50, 2-[5-Methyl-3-(trifluoromethyl)-1H-pyrazol-1-yl]-1-{4-[4-(naphthalen-1-ylethynyl)-1,3-thiazol-2-yl]piperidin-1-yl}ethanone] | 4.5 | ≥ 70% | ≥ 70% | – | chromatographic logP (log P (pH2.3); method [c]: LC-MS, neutral range, pH 7.8, 0.001 molar aqueous ammonium bicarbonate and acetonitrile): 4.66 |
| Cc1cc(C(F)(F)F)nn1CC(=O)N1CCC(c2nc(C#Cc3cccnc3)cs2)CC1 [Example I-51, 2-[5-Methyl-3-(trifluoromethyl)-1H-pyrazol-1-yl]-1-{4-[4-(pyridin-3-ylethynyl)-1,3-thiazol-2-yl]piperidin-1-yl}ethanone] | 2.68 | ≥ 70% | ≥ 70% | – | – |
| Cc1cc(C(F)(F)F)nn1CC(=O)N1CCC(c2nc(C#CCc3ccccc3)cs2)CC1 [Example I-52, 2-[5-Methyl-3-(trifluoromethyl)-1H-pyrazol-1-yl]-1-{4-[4-(3-phenylprop-1-yn-1-yl)-1,3-thiazol-2-yl]piperidin-1-yl}ethanone] | 3.88 | ≥ 70% | – | – | – |
| Cc1cc(C(F)(F)F)nn1CC(=O)N1CCC(c2nc(CCc3ccccc3)cs2)CC1 [Example I-53, 2-[5-Methyl-3-(trifluoromethyl)-1H-pyrazol-1-yl]-1-{4-[4-(2-phenylethyl)-1,3-thiazol-2-yl]piperidin-1-yl}ethanone] | – | ≥ 70% | ≥ 70% | – | chromatographic logP (log P (pH2.3); method [a]: HPLC, acidic range, pH 2.3, 0.1% aqueous phosphoric acid and acetonitrile): 3.79 |
| Cc1cc(C(F)(F)F)nn1CC(=O)N1CCC(c2nc(CCCC(C)c3ccccc3)cs2)CC1 (centres unmarked) [Example I-80, 2-[5-Methyl-3-(trifluoromethyl)-1H-pyrazol-1-yl]-1-{4-[4-(4-phenylpentyl)-1,3-thiazol-2-yl]piperidin-1-yl}ethanone] | 4.77 | ≥ 70% | ≥ 70% | – | – |
| Cc1cc(C(F)(F)F)nn1CC(=O)N1CCC(c2nc(CCc3cccc4ccccc34)cs2)CC1 [Example I-81, 2-[5-Methyl-3-(trifluoromethyl)-1H-pyrazol-1-yl]-1-(4-{4-[2-(naphthalen-1-yl)ethyl]-1,3-thiazol-2-yl}piperidin-1-yl)ethanone] | 4.37 | ≥ 70% | ≥ 70% | – | – |
| Cc1cc(C(F)(F)F)nn1CC(=S)N1CCC(c2nc(/C=C/c3ccccc3)cs2)CC1 [Example I-93, 2-[5-Methyl-3-(trifluoromethyl)-1H-pyrazol-1-yl]-1-(4-{4-[(E)-2-phenylethenyl]-1,3-thiazol-2-yl}piperidin-1-yl)ethanethione] | 4.65 | ≥ 70% | ≥ 70% | – | – |
| Cc1cc(C(F)(F)F)nn1CC(=O)N1CCC(c2nc(C#C[Si](C)(C)C)cs2)CC1 [Example I-98, 2-[5-Methyl-3-(trifluoromethyl)-1H-pyrazol-1-yl]-1-(4-{4-[(trimethylsilyl)ethynyl]-1,3-thiazol-2-yl}piperidin-1-yl)ethanone] | 4.28 | ≥ 70% | ≥ 70% | – | – |
| COc1ccc(C#Cc2csc(C3CCN(C(=O)Cn4nc(C(F)(F)F)cc4C)CC3)n2)cc1 [Example I-100, 1-(4-{4-[(4-Methoxyphenyl)ethynyl]-1,3-thiazol-2-yl}piperidin-1-yl)-2-[5-methyl-3-(trifluoromethyl)-1H-pyrazol-1-yl]ethanone] | 3.79 | ≥ 70% | ≥ 70% | – | – |
| COc1ccccc1C#Cc1csc(C2CCN(C(=O)Cn3nc(C(F)(F)F)cc3C)CC2)n1 [Example I-103, 1-(4-{4-[(2-Methoxyphenyl)ethynyl]-1,3-thiazol-2-yl}piperidin-1-yl)-2-[5-methyl-3-(trifluoromethyl)-1H-pyrazol-1-yl]ethanone] | 3.67 | ≥ 70% | ≥ 70% | – | – |
| O=C(Cc1cc(Cl)ccc1Cl)N1CCC(c2nc(C#Cc3ccccc3Br)cs2)CC1 [Example I-225] | – | – | – | 4.91^[b] | – |
| O=C(Cc1cc(Cl)ccc1Cl)N1CCC(c2nc(C#Cc3c(F)cccc3F)cs2)CC1 [Example I-226] | – | – | – | 4.52^[b] | – |
| Cc1cccnc1C#Cc1csc(C2CCN(C(=O)Cc3cc(Cl)ccc3Cl)CC2)n1 [Example I-228] | – | – | – | 3.35^[b] | log p (log P (pH2.3); [3]): 3.55^[c] |
| Cc1noc(C)c1C#Cc1csc(C2CCN(C(=O)Cc3cc(Cl)ccc3Cl)CC2)n1 [Example I-229] | – | – | – | 3.86^[b] | – |
| Cc1ccc(C)c(CC(=O)N2CCC(c3nc(C#Cc4ccccc4C)cs3)CC2)c1 [Example I-230] | – | – | – | 4.75^[b] | log p (log P (pH2.3); [3]): 4.78^[c]; |
| Cc1ccc(C)c(CC(=O)N2CCC(c3nc(C#Cc4ccccc4Br)cs3)CC2)c1 [Example I-231] | – | – | – | 4.77^[b] | log p (log P (pH2.3); [3]): 4.8^[c]; |
| Cc1ccc(C)c(CC(=O)N2CCC(c3nc(C#Cc4c(F)cccc4F)cs3)CC2)c1 [Example I-232] | – | – | – | 4.36^[b] | log p (log P (pH2.3); [3]): 4.39^[c]; |
| Cc1ccc(C)c(CC(=O)N2CCC(c3nc(C#Cc4c(C)noc4C)cs3)CC2)c1 [Example I-235] | – | – | – | 3.67^[b] | log p (log P (pH2.3); [3]): 3.71^[c]; |
| Cc1cccnc1/C=C\c1csc(C2CCN(C(=O)Cn3nc(C(F)(F)F)cc3C(F)(F)F)CC2)n1 [Example I-236] | – | – | – | 2.46^[b] | – |
| Cc1ccc(C)c(CC(=O)N2CCC(c3nc(/C=C\c4ccccc4C)cs3)CC2)c1 [Example I-237] | – | – | – | 4.86^[b] | log p (log P (pH2.3); [3]): 4.95^[c]; |
| C#Cc1csc(C2CCN(C(=O)Cc3cc(C)ccc3C)CC2)n1 [Example I-238] | – | – | – | 2.93^[b]; | log p (log P (pH2.3); [3]): 2.95^[c] |
| C#Cc1csc(C2CCN(C(=O)Cn3nc(C(F)F)cc3C(F)F)CC2)n1 [Example I-239] | – | – | – | 2.45^[b] | – |
| Brc1sc(C2CCNCC2)nc1CCc1ccccc1 [II-3, 4-[5-Bromo-4-(2-phenylethyl)-1,3-thiazol-2-yl]piperidine] | – | – | – | – | log p (log P (pH2.3); pH 2.3, pH2.3, read-out: log P): 1.72 |
